A short description of one data set: in vivo. The conditions noted are these: rabbit, topical or ocular.
A short description of data set [1]: Relative Dermal Toxicities (LD50 Rabbit Dermal Toxicity). The conditions noted are these: in vivo, topical or ocular, Female, maduramicin.
Data set [2] can be described thus: Segregation study (drug accumulation in medicated poultry feed after two hours on drum roller). Format: physicochemical. Here is the method: The segregation test is performed in a commercially-blended poultry feed, supplemented with 1000 ppm (0.1%) of drug, using the premix prepared in Example 1 in one blend and pure drug with an equivalent amount of corncob grits in the other as indicated in Table IV below.
These materials are placed into new one-gallon Nalgene dense polyethylene jars and placed on a drum roller for two hours. At the end of the mixing time, the jars are sampled in the horizontal position to remove the material which has accumulated and packed in the neck (#1), then the jars are emptied without shaking or tapping, and a cross-sectional sample taken from the bulk (#2); finally, the empty jar is extracted and assayed for residual drug (#3).

Setting [3] is: emptied jar residue, feed with 1000 ppm drug.
Setting [4] is: neck of jar, feed with 1000 ppm drug.

Turning to `CO[C@@H]1[C@@H](OC)[C@H](C)[C@@](O)(CC(=O)O)O[C@H]1[C@H](C)[C@H]1O[C@@]2(CC[C@@](C)([C@H]3CC[C@@](C)([C@@H]4O[C@@H]([C@H]5O[C@](C)(O)[C@H](C)C[C@@H]5C)C[C@@H]4O[C@@H]4C[C@H](OC)[C@@H](OC)[C@H](C)O4)O3)O2)C[C@H](O)[C@H]1C` [Composition 1, maduramicin], the LD50 – broadly, the dose at which mortality reaches 50% – in “in vivo” was determined as 8.9 mg/kg; in data set [1], 3.7 mg/kg.

`COC1CC(OC2CC(C3OC(C)(O)C(C)CC3C)OC2C2(C)CCC(C3(C)CCC4(CC(O)C(C)C(C(C)C5OC(O)(CC(=O)O)C(C)C(OC)C5OC)O4)O3)O2)OC(C)C1OC` (stereo not drawn) [Pure Drug]: in data set [2] (cross-sectional bulk sample, feed with 1000 ppm drug), the “#2 Bulk sample, Assay” value was found to be 1115 ppm. For the same compound, in data set [2] (setting [3]), the “#3 Bottle residue, Assay” value came to 2300 ppm; the “#3 Bottle residue, Total Drug” value stood at 1.85 mg; the “#3 Bottle residue, Weight” value is given as 0.80 g. For the same compound, the “separation of drug from the feed” value in data set [2] (mixed dry with feed) was “separates freely from the feed”. The “tendency to accumulate in the spots of least movement” value in data set [2] (mixed dry with feed, neck of the bottle, vs premix) is “greater tendency to accumulate in the spots of least movement”. Moreover, the “actual amount of drug segregating, pure drug vs premix (times larger)” value in data set [2] (neck accumulation, pure drug relative to premix) was “more than seven”. For the same compound, in data set [2] (setting [4]), the “#1 Neck accumulation, Assay” value turned out to be 1745 ppm; the “#1 Neck accumulation, Total Drug” value was found to be 14.8 mg; the “#1 Neck accumulation, Weight” value worked out at 8.5 g.

The values above are taken from patent US4824829A, “Non-dusting antibiotic, anticoccidial premix compositions and a process for their manufacture” (American Cyanamid Company, priority 1985, dated 1989).
